From patent US20250368633A1, “AZEPINE FUSED RING COMPOUND AS RIPK1 INHIBITOR AND USE THEREOF” (ARTIVILA BIOPHARMA, priority 2022, published 2025)
pEC50: −log10 of the molar value.

Assays:
RIPK1 kinase = target: T1, RIPK1 kinase (Homo sapiens, UniProt Q13546); experiment: In vitro RIPK1 kinase activity assay (ADP-Glo), inhibition by compounds at 1 μM; format: biochemical; settings: compound 1 μM; ATP 10 μM; MBP substrate 100 μg/mL; read-out: RIPK1 kinase activity inhibition rate range
T1 construct: purchased Promega VA7593
T1 sequence (Q13546 1-671): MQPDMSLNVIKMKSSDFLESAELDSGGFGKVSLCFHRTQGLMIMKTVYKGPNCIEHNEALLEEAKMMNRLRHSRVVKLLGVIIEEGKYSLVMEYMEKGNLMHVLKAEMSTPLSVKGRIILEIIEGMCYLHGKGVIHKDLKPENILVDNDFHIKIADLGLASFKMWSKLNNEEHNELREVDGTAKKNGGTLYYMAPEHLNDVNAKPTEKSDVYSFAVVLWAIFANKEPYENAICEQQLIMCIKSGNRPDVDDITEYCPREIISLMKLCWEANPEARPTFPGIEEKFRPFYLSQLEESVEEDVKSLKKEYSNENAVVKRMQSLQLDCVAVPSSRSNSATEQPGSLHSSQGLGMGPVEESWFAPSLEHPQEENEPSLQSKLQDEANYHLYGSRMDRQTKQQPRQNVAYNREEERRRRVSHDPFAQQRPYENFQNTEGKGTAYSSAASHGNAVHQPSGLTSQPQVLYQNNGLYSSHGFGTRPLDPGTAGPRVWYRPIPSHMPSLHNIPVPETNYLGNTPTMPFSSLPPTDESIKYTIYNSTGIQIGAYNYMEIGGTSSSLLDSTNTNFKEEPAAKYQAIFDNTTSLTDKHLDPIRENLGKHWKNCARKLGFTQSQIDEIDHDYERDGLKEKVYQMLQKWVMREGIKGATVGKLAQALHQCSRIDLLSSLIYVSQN
Method: RIPK1 kinase activity was assayed using the ADP-Glo assay and RIPK1 kinase reaction system (Promega, catalog number: VA7593). The RIPK1 kinase activity assay was performed according to the Promega kit manual.
The experimental method was briefly described as below. The concentration of RIPK1 kinase in the RIPK1 kinase reaction system was determined by kinase titration and S/B10. Compounds were diluted with 1× kinase buffer D (1% DMSO), and 1 μL of 100 μM compound DMSO stock solution was added to 19 μL 1× kinase buffer D. RIPK1 kinase was diluted with 1× kinase buffer D. 2.5×ATP/substrate was diluted with 1× kinase buffer D. The final concentration of ATP in the kinase reaction system was 10 μM, and the final concentration of MBP substrate was 100 μg/mL. 1 μL of diluted compound and 2 μL of diluted RIPK1 kinase were mixed, incubated at room temperature for 15 minutes, 2 μL of 2.5×ATP/substrate was added, mixed, and incubated at room temperature for 1 hour. 5 μL of ADP-Glo reagent was added to each well and incubated at room temperature for 1 hour. 10 μL of ADP detection reagent was added to each well and incubated at room temperature for another 0.5-1 hour. The chemiluminescent signal was read by a microplate reader and the inhibition rate of kinase activity was calculated.

U937 cells [1] = experiment: EC50 of necroptosis inhibition in U937 cells (TSZ-induced, CellTiter-Glo); format: cell-based; settings: Homo sapiens, U-937; TSZ (hTNF-α, SM-164, Z-VAD-FMK) 20 hours; 10 concentration points; read-out: EC50 intervals of necroptosis inhibition in U937 cells
Method: (§1) The biological activity of RIPK1 inhibitors was further evaluated in the inhibition of necroptosis in U937 cells. U937 cell line was purchased from Huatuo Biotechnology and stored in liquid nitrogen. U937 cells were revived before the experiment and cultured in RPMI-1640 medium (supplemented with 10% fetal bovine serum, 100 U/mL penicillin and 100 μg/mL streptomycin) at 37° C., 5% CO2. The activity was further evaluated by the cellular ATP level detected by the Promega CellTiter-Glo 2.0 Assay cell viability assay kit (Catalog No.: G9242).
The experimental method was briefly described as below. U937 cells in the logarithmic growth phase were collected by centrifugation. Cells were diluted to the cell density of 5×10^5 cells/mL with RPMI 1640 medium (supplemented with 10% fetal bovine serum, 100 U/mL penicillin and 100 μg/mL streptomycin). Cell suspension was added to a white sterile 384-well cell culture plate at 15 μL/well. The test compound was dissolved in DMSO to prepare a 10 mM stock solution. The compound was serially diluted with culture medium at a ratio of 1:3, for a total of 10 concentration points. A control with the same DMSO volume was set, with two replicates for each concentration. The diluted compound was added to the 384-well cell culture plate containing cells at 2.5 μL/well and incubated at 37° C., 5% CO2 for 15 minutes. Z-VAD-FMK (Biyuntian, catalog number: C1202-5 mg) was dissolved in DMSO to prepare a 20 mM stock solution. SM-164 (Biyuntian, catalog number: SC0114-10 mM) was dissolved in DMSO to prepare a 10 mM stock solution and diluted to 0.1 mM. hTNF-α (Sino Biological Inc., catalog number: 10602-HNAE) was dissolved in sterile water to 10 μg/mL. RPMI 1640 medium (supplemented with 10% fetal bovine serum, 100 U/mL penicillin and 100 μg/mL streptomycin) was used to prepare the TSZ mixture, containing 133.3 μM Z-VAD-FMK, 33.3 ng/ml hTNF-α and 0.3 μM SM-164. After 15 minutes' coculture of compounds and cells, 7.5 μL of TSZ mixture was added to each well, mixed evenly, and cultured at 37° C., 5% CO2 for 20 hours. After 20 hours, the culture plate was removed and placed at room temperature for 30 minutes. Then, 10 μL of CellTiter-Glo reagent pre-equilibrated at room temperature was added to each well and incubated. After 10 minutes' incubation at room temperature in the dark, the chemiluminescence were measured using a microplate reader. The inhibition rate was calculated as Inh %=(1−(no TSZ-TSZ & compound)/(no TSZ-TSZ))×100. The EC50 was obtained by fitting the nonlinear regression curve log [inhibitor] vs. response−variable slope (four parameters) in GraphPad Prism.

U937 cells [2] = experiment: Inhibition rate of compound (1 μM) on necroptosis of U937 cells (TSZ-induced, CellTiter-Glo); format: cell-based; settings: TSZ (hTNF-α, SM-164, Z-VAD-FMK) 20 hours
Method: as §1
The experimental method was briefly described as below. U937 cells in the logarithmic growth phase were collected by centrifugation. Cells were diluted at the density of 5×10^5 cells/mL with RPMI 1640 medium (supplemented with 10% fetal bovine serum, 100 U/mL penicillin and 100 μg/mL streptomycin). The cell suspension was added to a white sterile 384-well cell culture plate at 15 μL/well. The test compound was dissolved in DMSO to prepare a 10 mM stock solution and diluted to 10 μM with culture medium. At the same time, a control with the same DMSO volume was set up. Two replicates were added for each concentration. The diluted compound was added to the 384-well cell culture plate containing cells at 2.5 µL/well and incubated at 37° C., 5% CO2 for 15 minutes. Z-VAD-FMK (Biyuntian, catalog number: C1202-5 mg) was dissolved in DMSO to prepare a 20 mM stock solution. SM-164 (Biyuntian, catalog number: SC0114-10 mM) was dissolved in DMSO to prepare a 10 mM stock solution and diluted to 0.1 mM. hTNF-α (Sino Biological Inc., catalog number: 10602-HNAE) was dissolved in sterile water to 10 μg/mL. RPMI 1640 medium (supplemented with 10% fetal bovine serum, 100 U/mL penicillin and 100 μg/mL streptomycin) was used to prepare the TSZ mixture, containing 133.3 μM Z-VAD-FMK, 33.3 ng/ml hTNF-α and 0.3 μM SM-164. After 15 minutes' coculture of compounds and cells, 7.5 μL of TSZ mixture was added to each well, mixed evenly, and cultured at 37° C., 5% CO2 for 20 hours. After 20 hours, the culture plate was removed and placed at room temperature for 30 minutes. 10 μL of CellTiter-Glo reagent pre-equilibrated at room temperature was added to each well and incubated for 10 minutes from light. The chemiluminescence was read by a microplate reader. The inhibition rate was calculated as Inh %=(1−(no TSZ-TSZ & compound)/(no TSZ-TSZ))×100.

| Compound | inhibition at 1 µM (RIPK1 kinase) [%] | pEC50 (U937 cells [1]) | Inhibition rate range of compounds (1 μM) on U937 cell necroptosis (U937 cells [2]) |
| --- | --- | --- | --- |
| C[C@@H](NC(=O)C(=O)N[C@H]1COc2ccc(C#CCN3CCN(CCOCCOCCOCCC(=O)Nc4cccc5c4CN(C4CCC(=O)NC4=O)C5=O)CC3)cc2N(C)C1=O)c1ccccc1 (mixture of isomers) [Example 164, N^1-((3S)-7-(3-(4-(2-(2-(2-(3-((2-(2,6-dioxopiperidin-3-yl)-1-oxoisoindolin-4-yl)amino)-3-oxopropoxy)ethoxy)ethoxy)ethyl)piperazin-1-yl)prop-1-yn-1-yl)-5-methyl-4-oxo-2,3,4,5-tetrahydrobenzo[b][1,4]oxazepin-3-yl)-N^2-((R)-1-phenylethyl)oxalamide] | ≥ 75 | 6.30 to 7.00 | A (A: ≥90%) |
| CN1C(=O)[C@@H](NC(=O)C(=O)NCCc2ccccc2)COc2ccc(Br)cc21 [Example 1, (S)—N^1-(7-bromo-5-methyl-4-oxo-2,3,4,5-tetrahydrobenzo[b][1,4]oxazepin-3-yl)-N^2-phenethyloxalamide] | 50 to 74 | 6.30 to 7.00 | A (A: ≥90%) |
| CN1C(=O)[C@@H](NC(=O)C(=O)NCCc2ccccc2)COc2cc(O)ccc21 [Example 5, (S)—N^1-(8-hydroxy-5-methyl-4-oxo-2,3,4,5-tetrahydrobenzo[b][1,4]oxazepin-3-yl)-N^2-phenethyloxalamide] | ≥ 75 | 6.30 to 7.00 | A (A: ≥90%) |
| C#CCOc1ccc2c(c1)N(C)C(=O)[C@@H](NC(=O)C(=O)NCCc1ccccc1)CO2 [Example 10, (S)—N^1-(5-methyl-4-oxo-7-(prop-2-yn-1-yloxy)-2,3,4,5-tetrahydrobenzo[b][1,4]oxazepin-3-yl)-N^2-phenethyloxalamide] | ≥ 75 | 6.30 to 7.00 | A (A: ≥90%) |
| Cc1cccc(/C=C/c2ccc3c(c2)N(C)C(=O)[C@@H](NC(=O)C(=O)NCCc2ccccc2)CO3)c1 [Example 11, (S,E)-N^1-(5-methyl-7-(3-methylstyryl)-4-oxo-2,3,4,5-tetrahydrobenzo[b][1,4]oxazepin-3-yl)-N^2-phenethyloxalamide] | ≥ 75 | > 7.00 | A (A: ≥90%) |

The next lines start with results.

| inhibition at 1 µM (RIPK1 kinase) [%] | Compound | pEC50 (U937 cells [1]) | Inhibition rate range of compounds (1 μM) on U937 cell necroptosis (U937 cells [2]) |
| --- | --- | --- | --- |
| ≥ 75 | CN1C(=O)[C@@H](NC(=O)C(=O)NCCc2ccccc2)COc2ccc(C#CC3CC3)cc21 [Example 2, (S)—N^1-(7-(cyclopropylethynyl)-5-methyl-4-oxo-2,3,4,5-tetrahydrobenzo[b][1,4]oxazepin-3-yl)-N^2-phenethyloxalamide] | > 7.00 | A (A: ≥90%) |
| ≥ 75 | CN1C(=O)[C@@H](NC(=O)C(=O)NCCc2ccccc2)COc2cc(Br)ccc21 [Example 3, (S)—N^1-(8-bromo-5-methyl-4-oxo-2,3,4,5-tetrahydrobenzo[b][1,4]oxazepin-3-yl)-N^2-phenethyloxalamide] | 5.70 to 6.30 | A (A: ≥90%) |
| 50 to 74 | CN1C(=O)[C@@H](NC(=O)C(=O)NCCc2ccccc2)COc2ccc(O)cc21 [Example 6, (S)—N^1-(7-hydroxy-5-methyl-4-oxo-2,3,4,5-tetrahydrobenzo[b][1,4]oxazepin-3-yl)-N^2-phenethyloxalamide] | 6.30 to 7.00 | A (A: ≥90%) |
| ≥ 75 | COc1ccc2c(c1)N(C)C(=O)[C@@H](NC(=O)C(=O)NCCc1ccccc1)CO2 [Example 8, (S)—N^1-(7-methoxy-5-methyl-4-oxo-2,3,4,5-tetrahydrobenzo[b][1,4]oxazepin-3-yl)-N^2-phenethyloxalamide] | 6.30 to 7.00 | A (A: ≥90%) |
| ≥ 75 | C=CCOc1ccc2c(c1)N(C)C(=O)[C@@H](NC(=O)C(=O)NCCc1ccccc1)CO2 [Example 9, (S)—N^1-(7-(allyloxy)-5-methyl-4-oxo-2,3,4,5-tetrahydrobenzo[b][1,4]oxazepin-3-yl)-N^2-phenethyl oxalamide] | 6.30 to 7.00 | A (A: ≥90%) |
| 50 to 74 | CN1C(=O)[C@@H](NC(=O)C(=O)NCCc2ccccc2F)COc2ccccc21 [Example 99, (S)—N^1-(2-fluorophenethyl)-N^2-(5-methyl-4-oxo-2,3,4,5-tetrahydrobenzo[b][1,4]oxazepin-3-yl)oxalamide] | – | B (B: 50-89%) |
| 25 to 49 | CN1C(=O)[C@@H](NC(=O)C(=O)NCCOc2ccccc2)COc2ccccc21 [Example 103, (S)—N^1-(5-methyl-4-oxo-2,3,4,5-tetrahydrobenzo[b][1,4]oxazepin-3-yl)-N^2-(2-phenoxyethyl)oxalamide] | 5.70 to 6.30 | – |
